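Values below derive from 48-hour exposures of cells grown in 96-well plates, with endpoints linearly interpolated between the two concentrations bracketing the appropriate inhibition level. Here, GI50 denotes the concentration required for 50% inhibition of growth.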 The source made the active and inactive calls. Cut-off read from the data, not from the text of the source: active = GI50 up to about 1.1 µM and inactive = higher.
Key:
Experiment in all cases: inhibition of tumour cell growth, NCI panel, 48 h
[1] = tested on: 786-0
[2] = tested on: A498
[3] = tested on: A549
[4] = tested on: ACHN
[5] = tested on: CAKI-1
[6] = tested on: CCRF-CEM
[7] = tested on: COLO 205
[8] = tested on: DLD-1
[9] = tested on: DMS-114
[10] = tested on: DMS-273
[11] = tested on: EKVX
[12] = tested on: HCC 2998
[13] = tested on: HCT-116
[14] = tested on: HL-60
[15] = tested on: HOP-62
[16] = tested on: HOP-92
[17] = tested on: HT-29
[18] = tested on: IGROV-1
[19] = tested on: K562
[20] = tested on: KM-20L2
[21] = tested on: KM12
[22] = tested on: LOX IMVI
[23] = tested on: LXFL 529
[24] = tested on: M14
[25] = tested on: M19-MEL
[26] = tested on: Malme-3M
[27] = tested on: NCI-H226
[28] = tested on: NCI-H23
[29] = tested on: NCI-H460
[30] = tested on: NCI-H522
[31] = tested on: OVCAR-3
[32] = tested on: OVCAR-4
[33] = tested on: OVCAR-5
[34] = tested on: OVCAR-8
[35] = tested on: RPMI-8226
[36] = tested on: RXF 393
[37] = tested on: SF-268
[38] = tested on: SF-295
[39] = tested on: SF-539
[40] = tested on: SK-MEL-28
[41] = tested on: SK-MEL-5
[42] = tested on: SK-OV-3
[43] = tested on: SN12C
[44] = tested on: SNB-19
[45] = tested on: SNB-75
[46] = tested on: SNB-78
[47] = tested on: SW-620
[48] = tested on: TK-10
[49] = tested on: U-251
[50] = tested on: UACC-257
[51] = tested on: UACC-62
[52] = tested on: UO-31
[53] = tested on: XF498
[54] = tested on: HCT-15
[55] = tested on: MOLT-4
[56] = tested on: SK-MEL-2
[57] = tested on: SR

CCOC(=O)C1N(S(=O)(=O)c2ccc(C)cc2)CCC12c1ccccc1N(C(C)=O)C2c1ccc(OC)c(OC)c1 (stereo not given)
GI50 [1]: > 100 µM (inactive)
GI50 [2]: > 100 µM (inactive)
GI50 [3]: > 100 µM (inactive)
GI50 [4]: > 100 µM (inactive)
GI50 [5]: 76.7 µM (inactive)
GI50 [6]: > 100 µM (inactive)
GI50 [7]: > 100 µM (inactive)
GI50 [8]: 78.2 µM (inactive)
GI50 [9]: > 100 µM (inactive)
GI50 [10]: > 100 µM (inactive)
GI50 [11]: > 100 µM (inactive)
GI50 [12]: > 100 µM (inactive)
GI50 [13]: 47.4 µM (inactive)
GI50 [14]: 48.1 µM (inactive)
GI50 [15]: > 100 µM (inactive)
GI50 [16]: 47.8 µM (inactive)
GI50 [17]: > 100 µM (inactive)
GI50 [18]: > 100 µM (inactive)
GI50 [19]: 80.7 µM (inactive)
GI50 [20]: > 100 µM (inactive)
GI50 [21]: > 100 µM (inactive)
GI50 [22]: > 100 µM (inactive)
GI50 [23]: > 100 µM (inactive)
GI50 [24]: > 100 µM (inactive)
GI50 [25]: > 100 µM (inactive)
GI50 [26]: > 100 µM (inactive)
GI50 [27]: 19.9 µM (inactive)
GI50 [28]: > 100 µM (inactive)
GI50 [29]: > 100 µM (inactive)
GI50 [30]: > 100 µM (inactive)
GI50 [31]: > 100 µM (inactive)
GI50 [32]: 71.1 µM (inactive)
GI50 [33]: > 100 µM (inactive)
GI50 [34]: > 100 µM (inactive)
GI50 [35]: 65.5 µM (inactive)
GI50 [36]: > 100 µM (inactive)
GI50 [37]: > 100 µM (inactive)
GI50 [38]: > 100 µM (inactive)
GI50 [39]: > 100 µM (inactive)
GI50 [40]: > 100 µM (inactive)
GI50 [41]: > 100 µM (inactive)
GI50 [42]: > 100 µM (inactive)
GI50 [43]: > 100 µM (inactive)
GI50 [44]: > 100 µM (inactive)
GI50 [45]: 74 µM (inactive)
GI50 [46]: > 100 µM (inactive)
GI50 [47]: > 100 µM (inactive)
GI50 [48]: > 100 µM (inactive)
GI50 [49]: > 100 µM (inactive)
GI50 [50]: > 100 µM (inactive)
GI50 [51]: > 100 µM (inactive)
GI50 [52]: 42.7 µM (inactive)
GI50 [53]: 21.7 µM (inactive)

Oc1cccnc1/C=N/OCc1ccccc1
GI50 [1]: > 100 µM (inactive)
GI50 [2]: > 100 µM (inactive)
GI50 [3]: > 100 µM (inactive)
GI50 [4]: > 100 µM (inactive)
GI50 [5]: > 100 µM (inactive)
GI50 [6]: > 100 µM (inactive)
GI50 [7]: > 100 µM (inactive)
GI50 [8]: > 100 µM (inactive)
GI50 [9]: > 100 µM (inactive)
GI50 [10]: > 100 µM (inactive)
GI50 [11]: > 100 µM (inactive)
GI50 [12]: > 100 µM (inactive)
GI50 [13]: > 100 µM (inactive)
GI50 [54]: > 100 µM
GI50 [14]: > 100 µM (inactive)
GI50 [15]: > 100 µM (inactive)
GI50 [17]: > 100 µM (inactive)
GI50 [18]: > 100 µM (inactive)
GI50 [19]: > 100 µM (inactive)
GI50 [20]: > 100 µM (inactive)
GI50 [21]: > 100 µM (inactive)
GI50 [22]: > 100 µM (inactive)
GI50 [23]: > 100 µM (inactive)
GI50 [24]: > 100 µM (inactive)
GI50 [25]: > 100 µM (inactive)
GI50 [55]: > 100 µM (inactive)
GI50 [26]: > 100 µM (inactive)
GI50 [27]: > 100 µM (inactive)
GI50 [29]: > 100 µM (inactive)
GI50 [30]: > 100 µM (inactive)
GI50 [31]: > 100 µM (inactive)
GI50 [33]: > 100 µM (inactive)
GI50 [34]: > 100 µM (inactive)
GI50 [35]: > 100 µM (inactive)
GI50 [36]: 23.6 µM (inactive)
GI50 [37]: > 100 µM (inactive)
GI50 [38]: > 100 µM (inactive)
GI50 [39]: > 100 µM (inactive)
GI50 [56]: > 100 µM (inactive)
GI50 [41]: > 100 µM (inactive)
GI50 [42]: > 100 µM (inactive)
GI50 [43]: 97.1 µM (inactive)
GI50 [44]: > 100 µM (inactive)
GI50 [45]: > 100 µM (inactive)
GI50 [46]: > 100 µM (inactive)
GI50 [47]: > 100 µM (inactive)
GI50 [48]: > 100 µM (inactive)
GI50 [49]: > 100 µM (inactive)
GI50 [50]: > 100 µM (inactive)
GI50 [51]: > 100 µM (inactive)
GI50 [52]: 68.2 µM (inactive)
GI50 [53]: 29 µM (inactive)

O=C1OC2(OC2c2ccc(Cl)cc2)c2ccccc21 (stereo not given)
GI50 [3]: > 100 µM (inactive)
GI50 [4]: 94.2 µM (inactive)
GI50 [5]: > 100 µM (inactive)
GI50 [6]: 51.5 µM (inactive)
GI50 [7]: > 100 µM (inactive)
GI50 [8]: > 100 µM (inactive)
GI50 [9]: 64.7 µM (inactive)
GI50 [10]: > 100 µM (inactive)
GI50 [11]: > 100 µM (inactive)
GI50 [12]: > 100 µM (inactive)
GI50 [13]: > 100 µM (inactive)
GI50 [54]: > 100 µM
GI50 [14]: 34.3 µM (inactive)
GI50 [15]: 20.4 µM (inactive)
GI50 [16]: > 100 µM (inactive)
GI50 [17]: > 100 µM (inactive)
GI50 [18]: > 100 µM (inactive)
GI50 [19]: 53.1 µM (inactive)
GI50 [20]: > 100 µM (inactive)
GI50 [21]: 71.1 µM (inactive)
GI50 [22]: 17.8 µM (inactive)
GI50 [23]: 22.7 µM (inactive)
GI50 [24]: > 100 µM (inactive)
GI50 [25]: > 100 µM (inactive)
GI50 [55]: > 100 µM (inactive)
GI50 [26]: > 100 µM (inactive)
GI50 [27]: > 100 µM (inactive)
GI50 [29]: > 100 µM (inactive)
GI50 [30]: 31.9 µM (inactive)
GI50 [31]: > 100 µM (inactive)
GI50 [32]: 42.6 µM (inactive)
GI50 [33]: > 100 µM (inactive)
GI50 [34]: > 100 µM (inactive)
GI50 [35]: 89.1 µM (inactive)
GI50 [36]: 62.7 µM (inactive)
GI50 [37]: > 100 µM (inactive)
GI50 [38]: 85.7 µM (inactive)
GI50 [39]: > 100 µM (inactive)
GI50 [40]: > 100 µM (inactive)
GI50 [56]: > 100 µM (inactive)
GI50 [42]: > 100 µM (inactive)
GI50 [43]: > 100 µM (inactive)
GI50 [44]: 73.8 µM (inactive)
GI50 [45]: 48.1 µM (inactive)
GI50 [57]: > 100 µM (inactive)
GI50 [47]: > 100 µM (inactive)
GI50 [48]: > 100 µM (inactive)
GI50 [51]: > 100 µM (inactive)
GI50 [52]: > 100 µM (inactive)
GI50 [53]: 43.4 µM (inactive)
